In one data set the test system is SH-SY5Y cells. Put plainly: Cytotoxicity test (CCK-8 cell viability) in SH-SY5Y cells. The data set is classed as cell-based, human. The conditions noted are these: SH-SY5Y, 0, 0.1, 1, 10, 100 μM, 24 hours. Here is the method:
Human undifferentiated neuroblastoma cell line SH-SY5Y and human embryonic kidney cell line (HEK)-293T were purchased from Korean Cell Line Bank (Korea) and Takara (Japan), respectively. Cells were grown in HyClone Minimal Essential Medium (MEM) and Dulbecco's Modified Eagle Medium (DMEM), respectively, supplemented with 10% (v/v) fetal bovine serum (FBS), penicillin (100 U/mL), and streptomycin ([…]). Cells were maintained in a humidified atmosphere of 95% air and 5% CO2 at 37° C. Cells were passaged 10 times at maximum. Cells were dissociated using 0.05% trypsin-EDTA solution and the cells were seeded in new culture dishes for maintenance. […]
The time of co-incubation was 24 hours and six replicates were made for each measurement. Finally, 10 μL of CCK-8 reagent (Dojindo Laboratories, Rockville, MD) was added to each well, and after incubation at 37° C. for 3 minutes, the OD at 450 nm was measured using a multifunction microplate reader (Tecan Infinite M200 Pro). These measurements were compared to that of a control and expressed as a percentage of the control to calculate cell viability. The IC50 value was calculated using SPSS software. To do this, the absorbance of the blank wells with only growth medium is subtracted from the values or the wells with cells. […]
The cytotoxicity of the compound was evaluated by treating cells with BnH12003 and measuring cell viability.

For data set [1], the system named is mouse barrel cortex (layer 4). Put plainly: Ex vivo synaptic plasticity (TC EPSC potency, GABA/AMPA ratio) in barrel cortex after in vivo administration. The conditions noted are these: C57BL/6J mice. An excerpt:
Eight weeks old male C57BL/6J mice were anesthetized with isoflurane during surgery. The mice were then be placed in a stereotaxic frame (RWD Life Science, China). The parietal and the frontal bones were exposed by a sagittal incision of the scalp at the midline from the level of the eyes to the occipital protuberance. A small burr hole was drilled after exposing the skull. The injection cannula was placed at the following coordinates: (Mouse: Bregma-3.30, lateral-1.50, and ventral 0.7 mm). Sterile saline solution (+/−a compound of the present disclosure) was perfused at a constant flow rate of […] through the injection cannula using a mini-Os pump (DURECT Corporation ALZET Osmotic Pumps, CA). Implantation was done in layer 4 of the barrel cortex ipsilateral. To estimate extent of the diffusion of the injected compound in layer 4 barrel cortex during pump injection, methylene blue was first injected to stain the diffusion area. On average methylene blue diffused to 2000.0 μm away from the injection site (the total area of the barrel cortex region is about 1500 μm). Based on this analysis, the present inventors recorded from barrel cortex area.
The compound was diluted to 25 mg/kg using DMSO: PEG400: Saline (5:55:40). The compound was administered intraperitoneal at 10:00 a.m. daily (i.p. volume was 200 ul) for about 11 to 12 days. Control group was also administered by i.p. injection in the same manner using the vehicle (DMSO: PEG400: Saline (5:55:40)). 5 mice were used for the compound administration group and the control group, respectively.
For TC or hippocampus slice preparation, 9 to 10 weeks-old male C57BL/6J mice were anesthetized with isoflurane. Then, the brain was rapidly cooled via transcardial perfusion with ice-cold sucrose-artificial cerebrospinal fluid (aCSF). The brain was removed and placed in ice-cold sucrose aCSF. Paracoronal slices were prepared at an angle of 50° relative to the midline on a ramp at an angle of 10°. Then, slices were incubated in aCSF at 35° C. for 30 minutes to recover. […]
Whole cell recordings were made using a multiclamp 700A (Molecular devices, Sunnyvale, CA)digitized at 10 kHz and filtered at 2 kHz. Input resistance and series resistance were monitored continuously during recordings, as previously described (see Isaac, Crair, Nicoll, & Malenka, 1997, Silent synapses during development of thalamocortical inputs, DOI: 10.1016/s0896-6273 (00) 80267-6).
For the minimal stimulation protocol (Potency), VB thalamic stimulation intensity was adjusted to find the lowest intensity that elicited a mixture of synaptic responses and failures. Failure rate was calculated as the number of failures/total number of trials. […]

For another data set, the target named is T1, HDAC4 (Mus musculus, UniProt Q6NZM9).
T1 construct: Cortical tissue from mice was prepared according to protocol above then was homogenized and lysed for protein extraction; from tissue; host or cells: barrel cortex of C57BL/6J mice
Put plainly: HDAC4 protein level in barrel cortex by Western blot. It is filed as in vivo. The conditions noted are these: mice barrel cortex. In general terms: A western blot detects proteins with antibodies after separation by electrophoresis.

Where [2] appears, read: Os pump, 3 μM continuously for 2 weeks, barrel cortex layer 4.
Setting [3] is: intraperitoneal 25 mg/kg once a day for about 11 or 12 days.

T1 sequence (Q6NZM9 whole entry): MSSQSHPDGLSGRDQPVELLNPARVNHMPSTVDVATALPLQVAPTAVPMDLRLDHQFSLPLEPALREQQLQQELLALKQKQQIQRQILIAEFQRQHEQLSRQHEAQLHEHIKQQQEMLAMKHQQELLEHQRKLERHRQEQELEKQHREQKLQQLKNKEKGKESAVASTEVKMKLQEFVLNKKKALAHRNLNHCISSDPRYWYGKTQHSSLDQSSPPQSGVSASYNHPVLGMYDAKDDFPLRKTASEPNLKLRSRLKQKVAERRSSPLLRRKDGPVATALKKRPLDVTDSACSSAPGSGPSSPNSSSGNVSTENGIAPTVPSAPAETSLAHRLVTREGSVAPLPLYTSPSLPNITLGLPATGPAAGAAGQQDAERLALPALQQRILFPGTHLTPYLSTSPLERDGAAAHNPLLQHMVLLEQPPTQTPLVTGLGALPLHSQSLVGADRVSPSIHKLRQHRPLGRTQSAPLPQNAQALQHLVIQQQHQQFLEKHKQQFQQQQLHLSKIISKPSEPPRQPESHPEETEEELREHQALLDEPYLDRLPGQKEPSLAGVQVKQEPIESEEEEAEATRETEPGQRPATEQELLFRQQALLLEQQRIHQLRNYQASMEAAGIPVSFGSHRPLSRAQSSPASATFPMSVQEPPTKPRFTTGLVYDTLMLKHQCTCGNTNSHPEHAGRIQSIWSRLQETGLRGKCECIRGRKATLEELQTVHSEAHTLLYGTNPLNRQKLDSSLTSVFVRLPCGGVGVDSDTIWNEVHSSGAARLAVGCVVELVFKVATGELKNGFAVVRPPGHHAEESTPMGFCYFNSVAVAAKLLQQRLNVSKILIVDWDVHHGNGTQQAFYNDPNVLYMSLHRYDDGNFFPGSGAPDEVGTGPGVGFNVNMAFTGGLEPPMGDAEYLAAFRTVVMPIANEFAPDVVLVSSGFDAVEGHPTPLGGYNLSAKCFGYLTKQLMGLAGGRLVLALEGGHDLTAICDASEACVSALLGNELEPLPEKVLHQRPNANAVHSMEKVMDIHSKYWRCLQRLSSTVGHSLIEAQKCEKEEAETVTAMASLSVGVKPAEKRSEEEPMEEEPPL

As for `C[C@H]1CC[C@@H](C(=O)O)CN1C(=O)Cc1ccc(-c2cncnc2)cc1` [BnH12003, (3R,6S)-6-methyl-1-(2-(4-(pyrimidin-5-yl)phenyl)acetyl) piperidine-3-carboxylic acid], in the data set with SH-SY5Y cells, the cell viability entry is reported as “no significant change in cell viability”. In data set [1] (setting [2]), the “GABA/AMPA ratio (balance of excitation/inhibition)” value is “balance of excitation/inhibition was maintained” and the “excitatory TC synaptic potency (TC potency)” value is “significantly increased”. For the same molecule, in data set [1] (setting [3]), the “GABA/AMPA ratio (balance of excitation/inhibition)” value is reported as “maintaining the balance of excitation/inhibition” and the “TC synaptic potency in the sensory cortex” value is on record as “increase TC synaptic potency”. For the same molecule, on HDAC4 (intraperitoneal administration), the HDAC4 protein expression result was “significantly suppressed”. The HDAC4 protein expression entry on HDAC4 (oral administration) is on record as “significantly suppressed”. Further, at HDAC4 (oral and intraperitoneal administration), the “duration of the inhibitory effect on HDAC4 protein expression” value is at least 10 days.

Values taken from patent US20250213560A1, “NITROGEN-CONTAINING HETEROCYCLIC COMPOUNDS HAVING PHENYL GROUP AND USES THEREOF” (BNH RESEARCH CO., LTD., priority 2022, published 2025).
